Source: PubChem BioAssay AID2060510 (Molecular Pharmacology Branch, DTP, NCI, 2025)
One block for each compound: values may come before it.

Tested on: 439559-082-T-J2-PDC spheroids viability
Assay: Anticancer human tumor 439559-082-T-J2-PDC patient-derived colon adenocarcinoma cell line growth inhibition [GQUAD]
Settings: for IC50: curve of first compound; for viability, T/C: stronger effect = lower value
Procedure, shortened: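 Tumor cells were grown as complex spheroids with HUVEC endothelial cells and mesenchymal stem cells as stroma. G-quadruplex stabilizers were combined with targeted agents over half-log dilutions from near the clinical Cmax, or from 10 microM.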

[1] = second compound 0.0316 µM, first compound 0.0316 µM
[2] = second compound 0.0316 µM, first compound 0.1 µM
[3] = second compound 0.0316 µM, first compound 0.316 µM
[4] = second compound 0.0316 µM, first compound 1 µM
[5] = second compound 0.0316 µM, first compound 3.16 µM
[6] = second compound 0.0316 µM, first compound 10 µM
[7] = second compound 0.1 µM, first compound 0.0316 µM
[8] = second compound 0.1 µM, first compound 0.1 µM
[9] = second compound 0.1 µM, first compound 0.316 µM
[10] = second compound 0.1 µM, first compound 1 µM
[11] = second compound 0.1 µM, first compound 3.16 µM
[12] = second compound 0.1 µM, first compound 10 µM
[13] = second compound 0.316 µM, first compound 0.0316 µM
[14] = second compound 0.316 µM, first compound 0.1 µM
[15] = second compound 0.316 µM, first compound 0.316 µM
[16] = second compound 0.316 µM, first compound 1 µM
[17] = second compound 0.316 µM, first compound 3.16 µM
[18] = second compound 0.316 µM, first compound 10 µM
[19] = second compound 1 µM, first compound 0.0316 µM
[20] = second compound 1 µM, first compound 0.1 µM
[21] = second compound 1 µM, first compound 0.316 µM
[22] = second compound 1 µM, first compound 1 µM
[23] = second compound 1 µM, first compound 3.16 µM
[24] = second compound 1 µM, first compound 10 µM
[25] = second compound 3.16 µM, first compound 0.0316 µM
[26] = second compound 3.16 µM, first compound 0.1 µM
[27] = second compound 3.16 µM, first compound 0.316 µM
[28] = second compound 3.16 µM, first compound 1 µM
[29] = second compound 3.16 µM, first compound 3.16 µM
[30] = second compound 3.16 µM, first compound 10 µM
[31] = second compound 10 µM, first compound 0.0316 µM
[32] = second compound 10 µM, first compound 0.1 µM
[33] = second compound 10 µM, first compound 0.316 µM
[34] = second compound 10 µM, first compound 1 µM
[35] = second compound 10 µM, first compound 3.16 µM
[36] = second compound 10 µM, first compound 10 µM
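Also: spheroids exposed to the agents for 7 days before readout.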
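For viability, T/C in this document: percent of luminescence signal in DMSO vehicle wells taken as 100% viability.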

SMILES: CC(=O)O[C@H]1C(=O)[C@@]2(C)[C@H]([C@H](OC(=O)c3ccccc3)[C@]3(O)C[C@H](OC(=O)[C@H](O)[C@@H](NC(=O)c4ccccc4)c4ccccc4)C(C)=C1C3(C)C)[C@]1(OC(C)=O)CO[C@@H]1C[C@@H]2O + Cc1cnc(CNC(=O)c2c(=O)c3ccc(N4CCCN(C)CC4)nc3n3c2sc2ccccc23)cn1
- IC50 (second compound 0.0316 µM): 2820 nM
- IC50 (second compound 0.1 µM): 3410 nM
- IC50 (second compound 0.316 µM): 3380 nM
- IC50 (second compound 1 µM): 3300 nM
- IC50 (second compound 3.16 µM): 5100 nM
- IC50 (second compound 10 µM): 4090 nM
- viability, T/C [1]: 89.9%
- viability, T/C [2]: 89.1%
- viability, T/C [3]: 81.3%
- viability, T/C [4]: 74.2%
- viability, T/C [5]: 46.1%
- viability, T/C [6]: 39.6%
- viability, T/C [7]: 97.5%
- viability, T/C [8]: 88%
- viability, T/C [9]: 70.7%
- viability, T/C [10]: 70%
- viability, T/C [11]: 46%
- viability, T/C [12]: 40.5%
- viability, T/C [13]: 90.3%
- viability, T/C [14]: 81.2%
- viability, T/C [15]: 78.2%
- viability, T/C [16]: 65.8%
- viability, T/C [17]: 49.3%
- viability, T/C [18]: 39.2%
- viability, T/C [19]: 74.7%
- viability, T/C [20]: 72.8%
- viability, T/C [21]: 76.6%
- viability, T/C [22]: 61.8%
- viability, T/C [23]: 51.8%
- viability, T/C [24]: 42.9%
- viability, T/C [25]: 62.2%
- viability, T/C [26]: 73.1%
- viability, T/C [27]: 72.5%
- viability, T/C [28]: 58.9%
- viability, T/C [29]: 54.7%
- viability, T/C [30]: 42.4%
- viability, T/C [31]: 64.8%
- viability, T/C [32]: 57.1%
- viability, T/C [33]: 61.1%
- viability, T/C [34]: 56%
- viability, T/C [35]: 55.3%
- viability, T/C [36]: 36.6%

SMILES: CC1COCCN1c1cc(C2(O)CC3CCC(C2)O3)c2cnn(-c3ccn[nH]3)c2n1 (stereo not given) + Cc1[nH]c2ccc(F)cc2c1-c1nc2c3cccnc3c3ncccc3c2[nH]1
- IC50 (second compound 0.0316 µM): 1690 nM
- IC50 (second compound 0.1 µM): 2590 nM
- IC50 (second compound 0.316 µM): 1450 nM
- IC50 (second compound 1 µM): 1490 nM
- IC50 (second compound 3.16 µM): 863 nM
- IC50 (second compound 10 µM): 867 nM
- viability, T/C [1]: 84.5%
- viability, T/C [2]: 84.2%
- viability, T/C [3]: 78.2%
- viability, T/C [4]: 58.6%
- viability, T/C [5]: 38.9%
- viability, T/C [6]: 39.5%
- viability, T/C [7]: 89.5%
- viability, T/C [8]: 76.3%
- viability, T/C [9]: 71.1%
- viability, T/C [10]: 61.9%
- viability, T/C [11]: 46.7%
- viability, T/C [12]: 35.2%
- viability, T/C [13]: 97.2%
- viability, T/C [14]: 80.2%
- viability, T/C [15]: 70.8%
- viability, T/C [16]: 49.9%
- viability, T/C [17]: 44.6%
- viability, T/C [18]: 37.3%
- viability, T/C [19]: 83.8%
- viability, T/C [20]: 77.3%
- viability, T/C [21]: 70.2%
- viability, T/C [22]: 55%
- viability, T/C [23]: 40.3%
- viability, T/C [24]: 33.4%
- viability, T/C [25]: 85.7%
- viability, T/C [26]: 67.8%
- viability, T/C [27]: 63.5%
- viability, T/C [28]: 51%
- viability, T/C [29]: 32.8%
- viability, T/C [30]: 27%
- viability, T/C [31]: 75.4%
- viability, T/C [32]: 74.5%
- viability, T/C [33]: 57.1%
- viability, T/C [34]: 52.1%
- viability, T/C [35]: 33.4%
- viability, T/C [36]: 27.1%

SMILES: COc1cccc2c1C(=O)c1c(O)c3c(c(O)c1C2=O)CC(O)(C(=O)CO)CC3OC1CC(N)C(O)C(C)O1 (stereo not given) + Cc1[nH]c2ccc(F)cc2c1-c1nc2c3cccnc3c3ncccc3c2[nH]1
- IC50 (second compound 0.0316 µM): > 10000 nM
- IC50 (second compound 0.1 µM): > 10000 nM
- IC50 (second compound 0.316 µM): > 10000 nM
- IC50 (second compound 1 µM): > 10000 nM
- IC50 (second compound 3.16 µM): 9820 nM
- IC50 (second compound 10 µM): 5250 nM
- viability, T/C [1]: 98.5%
- viability, T/C [2]: 100%
- viability, T/C [3]: 96.2%
- viability, T/C [4]: 82.1%
- viability, T/C [5]: 61.5%
- viability, T/C [6]: 54.2%
- viability, T/C [7]: 107%
- viability, T/C [8]: 99%
- viability, T/C [9]: 89.1%
- viability, T/C [10]: 87.5%
- viability, T/C [11]: 69.5%
- viability, T/C [12]: 54.1%
- viability, T/C [13]: 98.9%
- viability, T/C [14]: 95.3%
- viability, T/C [15]: 85.9%
- viability, T/C [16]: 89.2%
- viability, T/C [17]: 62.7%
- viability, T/C [18]: 50.8%
- viability, T/C [19]: 87.9%
- viability, T/C [20]: 87%
- viability, T/C [21]: 82.1%
- viability, T/C [22]: 83.2%
- viability, T/C [23]: 67.3%
- viability, T/C [24]: 56.2%
- viability, T/C [25]: 80.4%
- viability, T/C [26]: 75%
- viability, T/C [27]: 85.2%
- viability, T/C [28]: 64.2%
- viability, T/C [29]: 63.3%
- viability, T/C [30]: 49.7%
- viability, T/C [31]: 92.3%
- viability, T/C [32]: 80.3%
- viability, T/C [33]: 69.8%
- viability, T/C [34]: 68.2%
- viability, T/C [35]: 53.2%
- viability, T/C [36]: 43.9%

Continued, in another order:

- IC50 (second compound 0.0316 µM): 234 nM
- IC50 (second compound 0.1 µM): 213 nM
- IC50 (second compound 0.316 µM): 231 nM
- IC50 (second compound 1 µM): 174 nM
- IC50 (second compound 3.16 µM): 171 nM
- IC50 (second compound 10 µM): 153 nM
SMILES: Nc1ccn(C2OC(CO)C(O)C2(F)F)c(=O)n1 (stereo not given) + Cc1cnc(CNC(=O)c2c(=O)c3ccc(N4CCCN(C)CC4)nc3n3c2sc2ccccc23)cn1
- viability, T/C [1]: 87.8%
- viability, T/C [2]: 65.9%
- viability, T/C [3]: 41.4%
- viability, T/C [4]: 35.3%
- viability, T/C [5]: 27.3%
- viability, T/C [6]: 20.8%
- viability, T/C [7]: 81.4%
- viability, T/C [8]: 62.3%
- viability, T/C [9]: 43.4%
- viability, T/C [10]: 29.8%
- viability, T/C [11]: 27.8%
- viability, T/C [12]: 18.4%
- viability, T/C [13]: 84.2%
- viability, T/C [14]: 65.4%
- viability, T/C [15]: 42.9%
- viability, T/C [16]: 31.9%
- viability, T/C [17]: 25.4%
- viability, T/C [18]: 19.2%
- viability, T/C [19]: 74.3%
- viability, T/C [20]: 61.7%
- viability, T/C [21]: 37.4%
- viability, T/C [22]: 28.8%
- viability, T/C [23]: 26%
- viability, T/C [24]: 27.3%
- viability, T/C [25]: 66.9%
- viability, T/C [26]: 56.1%
- viability, T/C [27]: 43.5%
- viability, T/C [28]: 28.3%
- viability, T/C [29]: 25.7%
- viability, T/C [30]: 19.6%
- viability, T/C [31]: 67.2%
- viability, T/C [32]: 56.3%
- viability, T/C [33]: 39.3%
- viability, T/C [34]: 29.8%
- viability, T/C [35]: 24.6%
- viability, T/C [36]: 22.6%

- IC50 (second compound 0.0316 µM): > 10000 nM
- IC50 (second compound 0.1 µM): > 10000 nM
- IC50 (second compound 0.316 µM): > 10000 nM
- IC50 (second compound 1 µM): > 10000 nM
- IC50 (second compound 3.16 µM): > 10000 nM
- IC50 (second compound 10 µM): > 10000 nM
SMILES: COc1ncnc(C2CC2)c1-c1ncc2cnn(Cc3ccc(-c4nc(C(F)(F)F)cn4C(C)C)cc3)c2n1 + Cc1cnc(CNC(=O)c2c(=O)c3ccc(N4CCCN(C)CC4)nc3n3c2sc2ccccc23)cn1
- viability, T/C [1]: 106%
- viability, T/C [2]: 92%
- viability, T/C [3]: 93.4%
- viability, T/C [4]: 105%
- viability, T/C [5]: 95.5%
- viability, T/C [6]: 97.5%
- viability, T/C [7]: 103%
- viability, T/C [8]: 101%
- viability, T/C [9]: 87.4%
- viability, T/C [10]: 95.4%
- viability, T/C [11]: 97.6%
- viability, T/C [12]: 96.5%
- viability, T/C [13]: 86.5%
- viability, T/C [14]: 85.1%
- viability, T/C [15]: 89.5%
- viability, T/C [16]: 79.3%
- viability, T/C [17]: 93.5%
- viability, T/C [18]: 77.4%
- viability, T/C [19]: 74.4%
- viability, T/C [20]: 78%
- viability, T/C [21]: 64.9%
- viability, T/C [22]: 81.8%
- viability, T/C [23]: 83.7%
- viability, T/C [24]: 73%
- viability, T/C [25]: 66.4%
- viability, T/C [26]: 69.3%
- viability, T/C [27]: 69.2%
- viability, T/C [28]: 69.6%
- viability, T/C [29]: 70%
- viability, T/C [30]: 69%
- viability, T/C [31]: 66.8%
- viability, T/C [32]: 58%
- viability, T/C [33]: 58.9%
- viability, T/C [34]: 66.3%
- viability, T/C [35]: 67%
- viability, T/C [36]: 63.9%
